Reference: PubChem BioAssay (NCI)
Values joined by “and” are separate entries in the source; they are usually repeats but may differ in a detail not shown here. Equal values may be shown once.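 A five-concentration, 48-hour dose response in 96-well plates underlies each endpoint, interpolated linearly between surrounding concentrations. At the GI50, growth is halved. The concentration for full growth arrest is given as TGI.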 *1 amine or outer side, *2 acyl side, *3 side chain or, on linkers, in order; H or OH if unused. Where a SMILES comes first, the peptide text is derived from it. Bridges are numbered along the chain shown (N, C = ends). [ ]: non-standard residue; d: D form. ξ: configuration not given here. X35 = CC[C@H](C)[C@@H](N[*:1])[C@@H](O)CC(=O)O[C@H](C(=O)[C@H](C)C(=O)[*:2])C(C)C; NMeY = CN[C@@H](Cc1ccc(O)cc1)C(=O)O; dNMeL = CN[C@H](CC(C)C)C(=O)O; ξΔPro = O=C(O)C1C=CCN1

Tests used:
Assay in all cases: NCI tumour cell line growth inhibition, 48 h
SK-OV-3 ovarian = test system: SK-OV-3 ovarian
DU-145 prostate = test system: DU-145 prostate
RXF 393 renal = test system: RXF 393 renal
SF-295 CNS = test system: SF-295 CNS
SW-620 colon = test system: SW-620 colon
K-562 leukemia = test system: K-562 leukemia
OVCAR-3 ovarian = test system: OVCAR-3 ovarian
OVCAR-4 ovarian = test system: OVCAR-4 ovarian
SK-MEL-5 melanoma = test system: SK-MEL-5 melanoma

Row | SMILES | TGI (SK-OV-3 ovarian) [µM] | TGI (DU-145 prostate) [µM] | TGI (RXF 393 renal) [µM] | TGI (SF-295 CNS) [µM] | TGI (SW-620 colon) [µM] | TGI (K-562 leukemia) | TGI (OVCAR-3 ovarian) [µM] | TGI (OVCAR-4 ovarian) [µM] | GI50 (SK-OV-3 ovarian) [µM] | GI50 (DU-145 prostate) [µM] | GI50 (SK-MEL-5 melanoma) [µM] | TGI (SK-MEL-5 melanoma) [µM] | GI50 (SF-295 CNS) [µM] | GI50 (SW-620 colon) [µM] | GI50 (K-562 leukemia) | GI50 (OVCAR-3 ovarian) [µM] | GI50 (OVCAR-4 ovarian) [µM] | GI50 (RXF 393 renal) [µM]
1 | COc1ccc(NC(=O)CC(=O)N2N=C(N(c3ccccc3)c3ccccc3)CC2c2ccccc2)cc1 (configuration not stated) | > 100 | > 100 | > 100 | > 100 | > 100 | > 100 µM | > 100 | > 100 | – | – | – | – | – | – | – | – | – | –
2 | CC1(C)[C@@H](OC(N)=O)C=C[C@]2(CO)[C@H]3CC[C@]4(C)[C@@H](c5ccc(=O)oc5)[C@@H](Cl)C[C@]4(O)C3=CC[C@@H]12 | 0.0306 | 0.00117 | – | 0.0144 | 0.0145 | 0.0188 µM and 0.0562 µM | 0.00411 | 0.00372 | 0.00474 | < 0.0001 | 0.00269 | 0.0158 | 0.00268 | 0.00262 | 0.00354 µM and 0.0025 µM | < 0.0001 | < 0.0001 | –
3 | COc1ccc2c(c1)C(=O)C1CCC(=O)N1C2c1ccc2c(c1)OCO2 (configuration not stated) | 63.1 | 33.4 | – | 36.3 | 23.7 | 39.8 µM | 15.3 | 47.9 | – | – | – | 24.9 | – | – | – | – | – | –
4 | COc1cccc(C23CCCC(C2)N(C)CC3OC(=O)c2ccccc2)c1OC (configuration not stated) | 97.7 | > 100 | – | 77.7 | > 100 | > 100 µM | > 100 | > 100 | – | – | – | 27.4 | – | – | – | – | – | –
5 | C=C(CCOC)CCC1CCCCC(=C)[C@H]1O (some centres not stated) | > 100 | > 100 | – | > 100 | > 100 | > 100 µM | > 100 | > 100 | – | – | – | > 100 | – | – | – | – | – | –
6 | Cc1cn(CCOCCOC(=O)NC(CCCNC(N)=O)C(=O)O)c(=O)[nH]c1=O (configuration not stated) | > 100 | > 100 | > 100 | > 100 | > 100 | > 100 µM | > 100 | > 100 | – | – | – | – | – | – | – | – | – | –
7 | C[PH+](c1nc2ccccc2nc1[PH+](C)C(C)(C)C)C(C)(C)C.C[PH+](c1nc2ccccc2nc1[PH+](C)C(C)(C)C)C(C)(C)C.[Au+].[Cl-] (configuration not stated) | 0.117 | 0.374 | 0.449 | – | 1.18 | – | – | 0.77 | 0.0293 | 0.0401 | 0.0329 | 0.105 | – | 0.0356 | – | – | 0.0349 | 0.103
8 | CCN(CCCl)c1cccc(NC(=O)c2ccc(C(=O)Nc3cccc(CN(C)C)c3)cc2)c1 | 4.13 | 12.2 | 0.0298 | 13.2 | 11.9 | 10.9 µM | – | 0.611 | – | – | – | – | – | – | – | – | – | –
9 | CC[C@H](C)[C@H]1NC(=O)[C@@H](NC(=O)[C@@H](CC(C)C)N(C)C(=O)C2C=CCN2)[C@@H](C)OC(=O)[C@H](Cc2ccc(OC)cc2)N(C)C(=O)[C@@H]2CCCN2C(=O)[C@H](CC(C)C)NC(=O)[C@@H](C)C(=O)[C@H](C(C)C)OC(=O)C[C@@H]1O (some centres not stated) (H-[ξΔPro][dNMeL]T[X35]LP[NMeY](Me); ester 3-C) | 0.183 | 0.251 | 0.0285 | 0.055 | > 50 | > 50 µM | – | < 0.005 | – | – | – | 0.0756 | – | – | – | – | – | –
10 | COc1cc2oc(=O)cc(C)c2cc1OC | > 100 | > 100 | – | > 100 | > 100 | > 100 µM | > 100 | > 100 | – | – | – | > 100 | – | – | – | – | – | –
11 | COC(=O)[C@](C)(Cc1ccccc1)NC(=O)[C@@H](C)N1[C@@H](c2ccccc2)COC1(C)C | > 100 | – | > 100 | > 100 | > 100 | > 100 µM | > 100 | > 100 | – | – | – | > 100 | – | – | – | – | – | –
12 | CC(C)(C)C(=O)N1CCN(C=O)C1=S | > 100 | > 100 | 81.9 | > 100 | > 100 | > 100 µM | > 100 | > 100 | – | – | – | – | – | – | – | – | – | –
13 | O=c1nc2ccc3sc4ccccc4c(=O)c3n2c(=O)[nH]1 | – | > 100 | > 100 | > 100 | > 100 | > 100 µM | > 100 | > 100 | – | – | – | > 100 | – | – | – | – | – | –
14 | CC(C)(Cc1ccccc1)N1C(=O)N1C(C)(C)Cc1ccccc1 | > 100 | > 100 | 48.3 | – | > 100 | > 100 µM | > 100 | > 100 | – | – | – | 43.4 | – | – | – | – | – | –
15 | NC(=S)NNC(=S)NC(=O)c1ccco1 | > 10 | > 10 | > 10 | – | > 10 | > 10 µM | > 10 | > 10 | – | – | – | > 10 | – | – | – | – | – | –
16 | CCOC(=O)CCC(NC(=O)OCc1ccccc1)C(=O)NC(CCC(=O)OCC)C(=O)NC(CCC(=O)OCC)C(=O)NNC(=O)OC(C)(C)C (configuration not stated) | – | – | > 100 | – | > 100 | > 100 µM | – | – | – | – | – | > 100 | – | – | – | – | – | –
17 | CC1(C)C=[N+]([O-])C(C)(C)N1O | – | > 10 | > 10 | > 10 | > 10 | > 10 µM | > 10 | > 10 | – | – | – | – | – | – | – | – | – | –
